Data on seven molecules can be found in patent US6458758B1, “Compositions and methods utilizing nitroxides in combination with biocompatible macromolecules” (Synzyme Technologies, Inc., priority 1993, dated 2002).

Where two headings read alike, the source gives them in different places.

One data set has as its system mice. The note with it: cited from earlier work.
Data set [1] in a line: Superoxide oxidase / dismutase activity of nitroxide-labelled hemoglobin on storage (ESR). Format: biochemical. From the text: For example, an o-raffinose polymerized hemoglobin solution that has been labelled with 4-amino-TEMPO is stored in its oxygenated state in a sealed glass container (FIG. 1A). In such a state, the rate of superoxide anion and met-hemoglobin formation in solution is sufficiently rapid that the conversion of the nitroxide to its hydroxylamine derivatives may be conveniently monitored (See Equation [4] and compare FIGS. 1A and 1B). Equation 4 represents that the conversion of nitroxide to its diamagnetic hydroxyl derivative is coupled to the conversion of the superoxide anion back to molecular oxygen. […] (FIG. 1B). The nitroxide is considered to have performed a “superoxide oxidase”-like activity when it is converted to its hydroxylamine derivative in the presence of hemoglobin.
Knowing that under the experimental conditions described in FIGS. 1A and 1B the nitroxide is fully converted to hydroxylamine (See Equation [4]), the nitroxide may be regenerated by simply providing more superoxide anion as shown in Equation 5. […] This observation is consistent with the reconversion of the hydroxylamine derivative to nitroxide coupled with the formation of hydrogen peroxide from superoxide anion.

Data set [2] is described as follows: In vivo EPR of mouse skin: intradermal PNA and intravenous ^15N-TPL. The protocol:
Thirty minutes later the spectrum in (C) was recorded.
The intensity of the low field ^15N-TPL peak is plotted against time. […].
FIGS. 42A and 42B show the pharmacokinetics of intravenous ^15N-TPL (1% v/w) measured at a patch of skin on the abdomen of the mouse.
A custom-built bridged loop-gap surface resonator, absorption microwave bridge was used for in vivo EPR spectroscopy at 1.25 GHz (L-band) in the mouse. […] The anesthetized mouse was placed in a ‘sandwich’ of two templates which allowed it to be placed on the loop-gap surface resonator, absorption microwave bridge in either the supine position, for spectroscopy of the back of the head, or in the prone position for spectroscopy of the abdomen. A tail vein cannula was used for intravenous injection of ^15N-TEMPOL; this injection site was remote from the resonator.
The spectrum was made 1 minute after ^15N-TPL was injected via the tail vein. […] FIG. 40B was recorded at approximately ⅕ of the instrument gain used in FIG. 40A in order to accommodate the ^15N-TPL signal.

Another data set relates to conscious rats. Nature of the data set: Mean arterial pressure response in conscious rats.
A further data set in a line: in vivo. The note with it: iv.
A short description of data set [3]: EPR signal of ^15N-TEMPOL in isolated ischemic rat heart. The note with it: 2 mM TPL. The protocol: The solid lines are double-exponential fittings to the observed intensity data. The half-lives are 0.4 minutes, 2.9 minutes (▪), and 3.3 minutes, 30.1 minutes (●) respectively.
Using methods essentially as described in Kuppusamy et al. Proc. Natl. Act. Sci., USA Vol. 91, pgs.
In an EPR imaging study, the rat heart was perfused with a solution containing nitroxide with or without polynitroxide albumin, followed by cessation of perfusate flow in order to create ischemia. […] It can be seen the signal intensity undergoes a biphasic decay and that the presence of polynitroxide albumin greatly slows the decay. By thus stabilizing the TEMPOL signal, polynitroxide albumin allows high-quality EPR images to be obtained over a prolonged period of time. Referring to FIGS. 22-23, a three-dimensional EPR image of the ischemic heart can still be obtained after 156 minutes of global ischemia. […] This illustrates that the presence of PNA allows much better imaging than is possible with TEMPOL alone, in terms both of resolution and signal persistence.
In FIG. 24, the intensity of the EPR signal is shown as a function of the duration of ischemia. In the lower curve, 2 mM of TEMPOL is infused into an ischemic heart. The upper curve traces the original intensity of 2 mM TEMPOL together with a polynitroxide albumin (4 g/dl of albumin at 42 moles of TEMPOL per mole of albumin). […]

A short description of data set [4]: Rat plasma TPL after intravenous injection (EPR spin density). The format is in vivo. Conditions: 100 mM solution, 10% v/v top load. As to the method:
FIG. 14 is a plot showing time dependence of rat plasma concentrations of TPL after intravenous injections. Plasma samples were obtained from rats described in FIG. 13. TPL concentrations were determined from EPR spin density measurements.

Another data set relates to C3H mice. Conditions: cited from earlier work.
Data set [5] is described as follows: Plasma levels of TPL with or without PNA in C57 mice (EPR). Conditions: TPL 275 mg/kg ip alone.
The next data set deals with C57 mice. Nature of the data set: 30-day survival of C57 mice after 10 Gray irradiation. The format is in vivo. Conditions: TPL 200 mg/kg ip, PNA 0.5 ml/mouse iv where given, 10 mice per group.
Data set [6] has as its system leukocyte rolling and adhesion to endothelial cells. Nature of the data set: Cigarette smoke induced leukocyte rolling, adhesion and aggregate formation, dorsal skinfold chamber. The format is in vivo, Syrian Golden hamsters. From the text: The interactions of leukocytes with endothelial cells and platelets are an indicator of the microcirculatory response to several adverse physiological conditions, ranging from localized and systemic ischemia/reperfusion injury, rejection of organ grafts, and the response to the organism to various oxidizing novae. See also Lehr et al., PNAS, […]. The mediator role of reactive oxygen species has been documented in many in vitro and in vivo models and, as a consequence, antioxidants and radical scavengers have been applied to counteract leukocyte activation, aggregation, and adhesion to endothelium and the subsequent microcirculatory dysfunction.

The nature of data set [7]: In vivo ESR of mouse tail after iv nitroxide-labelled HBOC plus ^15ND17-TEMPOL. Conditions: 0.5 ml iv via cannula. As to the method:
FIG. 7A is the ESR spectrum of the nitroxide signal recorded from the mouse tail approximately 10 minutes after intravenous infusion of 0.5 ml of the sample shown in FIG. 6. FIG. 7B is the time dependent (scan time 30 minutes) decrease in the center peak (Mo) signal intensity of FIG. 7A recorded at 10 times of the instrument sensitivity. FIG. 7C is a continuation of FIG. 7B at the end of its scan.
FIG. 8A is a series of 5 ESR spectrum recorded at 0.5 minute intervals, the magnetic field strength was increased by 2 Gauss in between each scan to display the decrease in signal intensity as a function of time. […]
The separation of the resonance peaks permits the simultaneous monitoring of free radical or enzyme mimic activities involving the small molecular weight nitroxide (TEMPOL) and its macromolecular conjugate in both in vitro and in vivo (murine) reactions. […] First, the approximate plasma half-life of a small molecular weight nitroxide (^15ND17-TEMPOL see FIG. 4C) and a large molecular weight 4-(2-bromoacetamido)-TEMPOL-labelled HBOC (see FIG. 4B) are determined by preparing a mixture of the two and adjusting the ESR signal intensity to be approximately the same (see FIG. 6). […] The mouse tail was inserted into an ESR cavity and the spectrum was recorded within 10 minutes after injection (see FIG. 7A). […]

Data set [8] relates to Chinese Hamster V79 cells. Briefly: Radioprotection of Chinese Hamster V79 cells at 12 Gray. The format is cell-based. Conditions: 12 Gray x-ray; cells pretreated 10 minutes prior to irradiation.

From the text for conscious rats: The rats were allowed to recover from surgery and anesthesia for approximately 7 days prior to study.
The rats were allowed to recover from surgery and anesthesia for approximately seven days prior to study.

As for `CC1(C)CCCC(C)(C)N1[O]` [TEMPO, 2,2,6,6 tetramethylpiperidine-1-oxyl], in the data set with mice (mice, intraperitoneal), the LD50 was 341 mg/kg. Further, the “maximum tolerated intraperitoneal dose” value with mice (mice) is listed as 275 mg/kg.

Turning to “4-amino-TEMPO labelled o-raffinose polymerized hemoglobin: o-raffinose polymerized hemoglobin labelled with 4-amino-TEMPO”, the “nitroxide signal after storage of sample diluted with equal volume of unlabelled hemoglobin” value in data set [1] (30 days of cold storage at 4° C.) is “partially regenerated”. In [1] (oxygenated, sealed glass container, 30 days at 4° C.), the “ESR resonance peaks after storage (conversion of nitroxide to hydroxylamine)” value is “complete disappearance of the resonance peaks”.

`CC1(C)CC(O)CC(C)(C)[15N]1[O]` [^15N-TPL]: the “plasma half-life (reduction to TPH)” value (mouse, 0.5 ml of 40 mM iv, no PNA) was found to be 2 min. Moreover, the “local half-life in skin” value in [2] (abdomen skin, absence of intradermal PNA) turned out to be 30 s. In addition, the “time the increased ^15N-TPL signal was maintained” value in data set [2] (abdomen skin, after intradermal injection of 100 μl PNA) was “at least 30 minutes”. The “decay of ^15N-TPL to ^15N-TPH” value in data set [2] (absence of intradermal PNA) is listed as “complete”. Further, the “time to maximum ^15N-TPL signal after tail vein injection” value in data set [2] (measured at site of intradermal PNA injection on the back) is on record as “less than 2 minutes”. Besides, the “residual steady-state level as share of the initial ^15N-TPL concentration” value in data set [2] (site of intradermal PNA injection, assuming complete distribution in total body water) is reported as 17%. Also, the “time the ^15N-TPL signal remained stable” value in data set [2] (skin on the back, in the presence of intradermal PNA) is reported as “at least 30 minutes”.

As to `CC1(C)CC(O)CC(C)(C)N1[O]` [TPL, 4-hydroxy-2,2,6,6-tetramethylpiperidine-1-oxyl], the vasodilatory effect result in the data set with conscious rats (10% v/v top load, PNA 5 g/dl, TPL 100 mM) is “no significant vasodilatory effect”. In the data set with conscious rats (conscious rats), the “antihypertensive effect when injected alone with HBOC” value is “no antihypertensive effect”. Moreover, the half-life is about 0.833 min in “in vivo” (C57, mouse); about 2 min in “in vivo” (mouse); under 1 min in [4]. The half-life at 2 mM in [3] (read-out: half-life of EPR signal, first phase of double-exponential fit) was 0.4 min; in data set [3] (read-out: half-life of EPR signal, second phase of double-exponential fit), 2.9 min. The “time to maximum peak intensity in mouse tail” value (repeat iv injection of TEMPOL) is recorded as “approximately 10 seconds”. For the same molecule, the “maximal TPL levels in whole blood” value with C3H mice (275 mg/kg ip, 5-10 minutes after injection) was about 150 µg/mL. Moreover, in the data set with C3H mice (TPL 275 mg/kg ip 5-10 minutes before whole body radiation), the “dose of radiation at which 50% of treated mice die within 30 days” value was 9.97 Gray. The “maximum plasma level of TPL relative to ~100 mg/kg ip in the presence of PNA” value in data set [5] is listed as “approximately one-fifth”. Moreover, the “maximal tolerated dose administered intraperitoneally” value in the data set on mice (C3H mice) is on record as 275 mg/kg. In the data set on C57 mice, this molecule gave a 30-day survival of 10%.

Consider “Hemoglobin-based oxygen carrier (HBOC), DBBF-Hb: purified hemoglobin cross-linked with bis(3,5 dibromosalicyl)fumarate”, for which, in [6] (15 MINUTES), the aggregate formation is reported as 3.0 ± 1.7 /30 sec, the arteriolar sticking is recorded as 31.9 ± 26.4 /mm^2, the venular rolling stood at 7.9 ± 2.8% and the venular sticking was 66.0 ± 43.2 /mm^2. Also, in [6] (60 MINUTES), the aggregate formation was 4.5 ± 2.6 /30 sec, the arteriolar rolling is listed as 3.8 ± 2.9 /mm, the arteriolar sticking is listed as 42.0 ± 32.1 /mm^2 and the venular rolling was determined as 9.2 ± 3.8%. For the same molecule, in [6] (60 MINUTES), the venular sticking is recorded as 101.5 ± 76.9 /mm^2. Also, in data set [6] (BASELINE), the aggregate formation is 0.3 ± 0.5 /30 sec, the arteriolar rolling was 0.3 /mm, the arteriolar sticking is reported as 0.0 /mm^2 and the venular rolling is 5.8 ± 1.2%. The venular sticking in [6] (BASELINE) was 0.0 ± 0.0 /mm^2. The leukocyte activation result in data set [6] (cigarette smoke, compared with saline-treated controls) is reported as “no effect”.

Take `[2H]C([2H])([2H])C1(C([2H])([2H])[2H])[15N]([O])C(C([2H])([2H])[2H])(C([2H])([2H])[2H])C([2H])([2H])C([2H])(O)C1([2H])[2H]` [^15ND17-TEMPOL]: the “time to disappearance of ESR signal after injection” value in data set [7] is at most 2.5 min.

With `CC1(C)CC(O)CC(C)(C)N1O` [TPH], the “surviving fraction of V79 cells” value in data set [8] is reported as 2%.
